Assay results reported in ChEMBL document CHEMBL1201862, “PubChem BioAssay data set” (2004).
Each block holds one compound with its values, some of them ahead of it. Activity calls are given as the source filed them.

How the values were obtained:
[1] = toxicity toward cultured mammalian cells – cell-based, plate reader, cherry-pick samples, cytotoxicity control, dose response (AID 504397); assay type: functional
[2] = Trypanosoma cruzi growth suppression in host cells – NIH3T3 host cells, beta-gal luminescence, confirmation (AID 2044); assay type: functional, cell-based;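 further: intracellular parasites grown in NIH/3T3 mouse fibroblasts as host cells; luminescent beta-galactosidase reporter signal from transgenic T. cruzi replicating inside host cells; inhibitors lower the luminescence signal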
[3] = test system: HEK293; test: EBV LMP1 TES2 canonical NF-kB signalling blockers – cell-based, HEK293, luciferase, cherry-pick, dose response (AID 588343); assay type: functional; conditions: Homo sapiens
[4] = NIH3T3 cell viability loss – ATP luminescence, mouse fibroblasts, counter-screen, dose response (AID 2010); assay type: functional, cell-based;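 further: cells exposed to compound for about 90 hours before reading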
[5] = biological target: T1, Runt-related transcription factor 1/Core-binding factor subunit beta (Homo sapiens, UniProt Q01196+Q13951); test: Runt domain/CBFb-SMMHC interaction disruptors – biochemical, TR-FRET (AID 1438); assay type: protein assay
T1 sequence (Q01196 whole entry, the tested form may be a part): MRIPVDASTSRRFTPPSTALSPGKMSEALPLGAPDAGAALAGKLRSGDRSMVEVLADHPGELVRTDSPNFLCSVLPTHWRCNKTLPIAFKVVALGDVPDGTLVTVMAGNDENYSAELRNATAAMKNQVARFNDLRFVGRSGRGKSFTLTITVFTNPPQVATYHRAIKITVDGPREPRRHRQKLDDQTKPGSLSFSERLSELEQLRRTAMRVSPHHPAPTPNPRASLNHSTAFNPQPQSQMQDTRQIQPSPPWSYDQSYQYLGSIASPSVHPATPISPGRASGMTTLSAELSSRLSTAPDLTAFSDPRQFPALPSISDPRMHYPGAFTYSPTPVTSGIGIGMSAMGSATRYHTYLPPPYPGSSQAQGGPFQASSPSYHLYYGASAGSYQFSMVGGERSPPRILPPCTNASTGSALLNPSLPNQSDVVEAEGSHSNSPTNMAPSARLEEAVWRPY
T1 sequence (Q13951 whole entry, the tested form may be a part): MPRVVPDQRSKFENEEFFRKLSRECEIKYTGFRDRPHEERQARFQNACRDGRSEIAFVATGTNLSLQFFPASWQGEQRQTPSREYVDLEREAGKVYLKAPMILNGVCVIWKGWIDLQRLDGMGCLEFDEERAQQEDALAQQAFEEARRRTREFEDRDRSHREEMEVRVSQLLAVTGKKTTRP

[6] = biological target: Induced myeloid leukemia cell differentiation protein Mcl-1 (Homo sapiens, UniProt Q07820); assay type: functional
Induced myeloid leukemia cell differentiation protein Mcl-1, sequence (Q07820 whole entry, the tested form may be a part): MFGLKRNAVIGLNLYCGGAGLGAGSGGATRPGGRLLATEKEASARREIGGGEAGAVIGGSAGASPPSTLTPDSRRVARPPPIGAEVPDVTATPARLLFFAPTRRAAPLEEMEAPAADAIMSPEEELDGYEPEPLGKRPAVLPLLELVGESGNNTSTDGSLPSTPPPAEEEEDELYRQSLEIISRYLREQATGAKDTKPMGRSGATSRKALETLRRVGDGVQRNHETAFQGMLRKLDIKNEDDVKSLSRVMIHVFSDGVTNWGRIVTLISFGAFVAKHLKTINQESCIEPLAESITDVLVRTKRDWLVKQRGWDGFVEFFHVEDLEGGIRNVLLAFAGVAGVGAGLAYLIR

[7] = biological target: T1, Runt-related transcription factor 1/Core-binding factor subunit beta; test: disruptors of Runt domain/CBFb-SMMHC interaction – biochemical, FRET, Cerulean-Runt, Venus-CBFb-SMMHC, uHTS, […] (AID 1434); assay type: protein assay
[8] = biological target: T2, Aryl hydrocarbon receptor (Homo sapiens, UniProt P35869); test: Luminescence-based cell-based high throughput dose response assay for activators of the Aryl Hydrocarbon Receptor (AHR). [Related pubchem assays: 2796 (Primary screen (AHR activators in singlicate)), 2845 (Confirmation screen (AHR activators in triplicate)), 434939 (Counterscreen (PXR activators in triplicate)), 2804 (Summary (AHR activators))]; assay type: ADME
T2 sequence (P35869 whole entry): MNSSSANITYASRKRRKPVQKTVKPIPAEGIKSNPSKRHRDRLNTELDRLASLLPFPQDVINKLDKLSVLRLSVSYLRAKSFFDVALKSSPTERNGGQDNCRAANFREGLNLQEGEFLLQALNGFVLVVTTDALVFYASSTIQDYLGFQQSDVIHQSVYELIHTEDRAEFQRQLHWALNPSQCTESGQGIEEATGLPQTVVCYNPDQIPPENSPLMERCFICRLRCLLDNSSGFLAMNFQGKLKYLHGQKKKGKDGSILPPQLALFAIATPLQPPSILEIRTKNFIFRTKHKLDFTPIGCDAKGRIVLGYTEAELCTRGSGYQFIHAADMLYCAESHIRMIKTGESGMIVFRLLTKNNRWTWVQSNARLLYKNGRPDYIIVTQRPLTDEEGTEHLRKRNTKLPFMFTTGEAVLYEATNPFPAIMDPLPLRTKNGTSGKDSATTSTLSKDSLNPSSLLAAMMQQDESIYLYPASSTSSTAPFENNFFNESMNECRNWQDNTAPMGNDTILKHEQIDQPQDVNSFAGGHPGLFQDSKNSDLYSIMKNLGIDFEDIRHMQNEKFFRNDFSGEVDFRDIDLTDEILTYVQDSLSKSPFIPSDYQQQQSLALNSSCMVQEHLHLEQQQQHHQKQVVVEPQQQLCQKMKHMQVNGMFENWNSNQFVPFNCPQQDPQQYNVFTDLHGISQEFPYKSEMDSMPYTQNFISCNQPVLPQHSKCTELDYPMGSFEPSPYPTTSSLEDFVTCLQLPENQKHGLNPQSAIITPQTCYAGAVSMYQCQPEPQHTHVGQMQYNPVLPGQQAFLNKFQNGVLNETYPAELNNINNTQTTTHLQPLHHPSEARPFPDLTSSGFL

[9] = biological target: SUMO-activating enzyme (Homo sapiens, UniProt Q9UBT2); test: blockers of UBC9-mediated SUMO conjugation – biochemical, AlphaScreen, SUMOylation inhibitor project, confirmation (AID 2018); assay type: functional
SUMO-activating enzyme, sequence (Q9UBE0 whole entry): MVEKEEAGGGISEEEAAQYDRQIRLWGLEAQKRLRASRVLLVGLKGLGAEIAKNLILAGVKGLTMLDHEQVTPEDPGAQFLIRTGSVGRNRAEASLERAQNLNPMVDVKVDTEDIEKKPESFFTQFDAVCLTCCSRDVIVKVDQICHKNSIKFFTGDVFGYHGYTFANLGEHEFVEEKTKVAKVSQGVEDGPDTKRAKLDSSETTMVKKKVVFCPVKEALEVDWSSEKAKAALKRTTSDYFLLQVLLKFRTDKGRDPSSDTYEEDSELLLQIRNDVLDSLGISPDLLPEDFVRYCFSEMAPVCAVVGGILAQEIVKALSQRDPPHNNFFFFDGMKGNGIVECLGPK
SUMO-activating enzyme, sequence (Q9UBT2 whole entry): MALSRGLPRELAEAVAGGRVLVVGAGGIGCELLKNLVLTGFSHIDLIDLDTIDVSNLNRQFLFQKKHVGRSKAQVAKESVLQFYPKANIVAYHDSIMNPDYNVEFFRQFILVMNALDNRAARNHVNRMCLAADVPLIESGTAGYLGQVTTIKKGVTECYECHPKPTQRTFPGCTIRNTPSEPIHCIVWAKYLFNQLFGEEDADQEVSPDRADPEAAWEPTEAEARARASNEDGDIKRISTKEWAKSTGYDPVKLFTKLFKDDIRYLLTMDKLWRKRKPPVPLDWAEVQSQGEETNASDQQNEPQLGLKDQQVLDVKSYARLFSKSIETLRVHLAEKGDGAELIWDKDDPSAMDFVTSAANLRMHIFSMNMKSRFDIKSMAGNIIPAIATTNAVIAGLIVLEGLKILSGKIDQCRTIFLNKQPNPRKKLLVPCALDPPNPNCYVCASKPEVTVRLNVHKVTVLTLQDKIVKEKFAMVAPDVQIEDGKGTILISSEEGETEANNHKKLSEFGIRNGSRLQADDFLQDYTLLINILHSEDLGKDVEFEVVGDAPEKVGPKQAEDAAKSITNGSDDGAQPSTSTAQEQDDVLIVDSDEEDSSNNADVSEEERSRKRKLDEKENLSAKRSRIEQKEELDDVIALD

[10] = biological target: T3, Coagulation factor XII (Homo sapiens, UniProt P00748); test: activated coagulation factor XII inhibitor potency, concentration-effect curve, cell-free (AID 716); assay type: functional
T3 sequence (P00748 whole entry): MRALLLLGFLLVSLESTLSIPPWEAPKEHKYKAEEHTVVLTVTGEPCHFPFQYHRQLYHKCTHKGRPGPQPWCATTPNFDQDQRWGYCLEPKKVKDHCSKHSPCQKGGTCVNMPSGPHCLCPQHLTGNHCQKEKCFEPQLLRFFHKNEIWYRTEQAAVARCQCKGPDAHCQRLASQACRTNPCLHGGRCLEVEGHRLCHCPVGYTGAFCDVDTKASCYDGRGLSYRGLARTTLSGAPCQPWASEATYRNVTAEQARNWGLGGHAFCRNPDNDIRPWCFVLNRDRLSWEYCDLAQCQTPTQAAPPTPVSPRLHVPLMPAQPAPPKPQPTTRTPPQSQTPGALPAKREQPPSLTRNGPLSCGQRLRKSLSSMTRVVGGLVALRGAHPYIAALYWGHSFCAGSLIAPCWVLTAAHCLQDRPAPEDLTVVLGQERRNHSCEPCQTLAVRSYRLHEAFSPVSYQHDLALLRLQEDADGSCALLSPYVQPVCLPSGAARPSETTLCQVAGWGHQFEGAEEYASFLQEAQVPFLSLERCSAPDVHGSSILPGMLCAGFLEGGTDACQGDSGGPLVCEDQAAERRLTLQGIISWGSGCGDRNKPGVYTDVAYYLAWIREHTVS

[11] = biological target: T4, Heat shock factor protein 1 (Mus musculus, UniProt P38532); test: decrease of HSF1-responsive luciferase luminescence – cell-based, NIH3T3, dose retest, confirmation (AID 2382); assay type: functional;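 further: NIH3T3 fibroblasts with HSF1-driven luciferase reporter stressed by proteasome inhibitor MG132; luminescence from HSF1-driven luciferase expression after 8 hours of MG132 stress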
T4 sequence (P38532 whole entry): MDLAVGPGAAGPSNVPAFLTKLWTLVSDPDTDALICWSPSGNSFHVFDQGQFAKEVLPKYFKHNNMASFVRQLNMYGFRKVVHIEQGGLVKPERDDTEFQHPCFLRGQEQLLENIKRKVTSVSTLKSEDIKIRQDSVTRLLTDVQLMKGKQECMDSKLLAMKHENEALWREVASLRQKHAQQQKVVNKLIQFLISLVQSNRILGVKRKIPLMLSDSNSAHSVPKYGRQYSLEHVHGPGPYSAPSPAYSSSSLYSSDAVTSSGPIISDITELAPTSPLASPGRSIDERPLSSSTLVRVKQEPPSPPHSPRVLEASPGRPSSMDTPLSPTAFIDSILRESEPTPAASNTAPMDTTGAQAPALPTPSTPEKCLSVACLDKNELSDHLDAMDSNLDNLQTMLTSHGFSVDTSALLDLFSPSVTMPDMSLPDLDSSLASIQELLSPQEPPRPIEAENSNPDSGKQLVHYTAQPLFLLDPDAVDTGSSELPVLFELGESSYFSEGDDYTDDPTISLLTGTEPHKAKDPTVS

[12] = biological target: T5, CAAX prenyl protease 2 (Saccharomyces cerevisiae S288c, UniProt Q03530); assay type: biochemical
T5 sequence (Q03530 whole entry): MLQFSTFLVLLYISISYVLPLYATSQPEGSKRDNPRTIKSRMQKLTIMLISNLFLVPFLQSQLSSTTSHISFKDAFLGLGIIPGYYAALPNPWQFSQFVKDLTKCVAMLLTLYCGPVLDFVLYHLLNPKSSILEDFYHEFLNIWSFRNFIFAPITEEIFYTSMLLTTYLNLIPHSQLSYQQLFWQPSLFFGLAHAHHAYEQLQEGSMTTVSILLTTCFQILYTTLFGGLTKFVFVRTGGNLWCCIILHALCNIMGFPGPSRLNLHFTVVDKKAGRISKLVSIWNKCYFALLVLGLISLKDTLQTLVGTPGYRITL

[13] = biological target: Prothrombin (Bos taurus, UniProt P00735); test: thrombin protease inhibitors – biochemical, fluorescence polarization, uHTS hits, dose response (AID 602369); assay type: functional
[14] = biological target: 72 kDa type IV collagenase (Homo sapiens, UniProt P08253); test: Dose Response validation of uHTS RPN11 inhibitor hits using a MMP-2 Fluorescence assay.; assay type: functional
72 kDa type IV collagenase, sequence (P08253 whole entry): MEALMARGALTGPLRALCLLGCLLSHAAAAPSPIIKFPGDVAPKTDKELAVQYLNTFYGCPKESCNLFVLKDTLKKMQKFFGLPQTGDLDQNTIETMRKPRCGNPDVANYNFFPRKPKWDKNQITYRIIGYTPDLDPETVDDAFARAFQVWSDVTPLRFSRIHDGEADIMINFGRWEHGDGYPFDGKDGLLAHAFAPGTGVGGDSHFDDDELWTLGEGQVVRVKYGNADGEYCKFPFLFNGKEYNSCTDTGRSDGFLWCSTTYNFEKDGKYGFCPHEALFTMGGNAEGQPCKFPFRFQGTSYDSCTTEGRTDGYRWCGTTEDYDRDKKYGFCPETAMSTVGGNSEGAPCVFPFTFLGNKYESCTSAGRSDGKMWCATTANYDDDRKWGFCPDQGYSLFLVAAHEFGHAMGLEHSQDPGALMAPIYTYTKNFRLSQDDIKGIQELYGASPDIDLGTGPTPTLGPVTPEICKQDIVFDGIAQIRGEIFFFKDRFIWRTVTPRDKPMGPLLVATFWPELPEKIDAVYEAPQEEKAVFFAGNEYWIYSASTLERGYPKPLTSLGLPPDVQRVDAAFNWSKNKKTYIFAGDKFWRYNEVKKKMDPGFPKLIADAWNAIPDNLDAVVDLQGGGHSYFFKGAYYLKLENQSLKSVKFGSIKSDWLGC

[15] = biological target: 26S proteasome non-ATPase regulatory subunit 14 (Homo sapiens, UniProt O00487); test: inhibition of proteasome subunit RPN11 – biochemical, fluorescence polarization, uHTS hits, confirmation (AID 602368); assay type: functional
26S proteasome non-ATPase regulatory subunit 14, sequence (O00487 whole entry, the tested form may be a part): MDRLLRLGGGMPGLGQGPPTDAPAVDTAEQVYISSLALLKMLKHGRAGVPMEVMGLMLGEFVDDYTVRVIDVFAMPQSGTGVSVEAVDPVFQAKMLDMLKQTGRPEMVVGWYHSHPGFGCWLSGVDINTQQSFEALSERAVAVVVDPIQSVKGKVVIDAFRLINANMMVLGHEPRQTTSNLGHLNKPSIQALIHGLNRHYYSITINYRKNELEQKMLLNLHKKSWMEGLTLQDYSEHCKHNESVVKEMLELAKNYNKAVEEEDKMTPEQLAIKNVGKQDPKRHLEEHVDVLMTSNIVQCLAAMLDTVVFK

[16] = biological target: T6, Type-1 angiotensin II receptor (Homo sapiens, UniProt P30556); test: agonist activity at AGTR1 – cell-based, uHTS hits, selectivity assay for APJ receptor agonist project, dose response (AID 488865); assay type: functional;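 further: beta-arrestin recruitment to AT1 measured by enzyme fragment complementation luminescence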
T6 sequence (P30556 whole entry): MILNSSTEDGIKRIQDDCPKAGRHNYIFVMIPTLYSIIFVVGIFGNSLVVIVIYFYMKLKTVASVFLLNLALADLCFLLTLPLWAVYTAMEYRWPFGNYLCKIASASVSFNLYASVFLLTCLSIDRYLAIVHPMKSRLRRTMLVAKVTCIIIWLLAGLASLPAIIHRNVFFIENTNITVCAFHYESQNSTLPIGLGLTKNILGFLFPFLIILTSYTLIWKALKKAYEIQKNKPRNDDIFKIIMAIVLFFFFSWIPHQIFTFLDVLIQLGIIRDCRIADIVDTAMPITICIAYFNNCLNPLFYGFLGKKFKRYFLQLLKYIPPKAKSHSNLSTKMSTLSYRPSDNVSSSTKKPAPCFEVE

[17] = biological target: T7, Mannose-6-phosphate isomerase (Homo sapiens, UniProt P34949); test: MPI inhibition at elevated mannose 6-phosphate – biochemical, fluorescence intensity, high mannose 6-phosphate, primary screen (AID 1220)
T7 sequence (P34949 whole entry): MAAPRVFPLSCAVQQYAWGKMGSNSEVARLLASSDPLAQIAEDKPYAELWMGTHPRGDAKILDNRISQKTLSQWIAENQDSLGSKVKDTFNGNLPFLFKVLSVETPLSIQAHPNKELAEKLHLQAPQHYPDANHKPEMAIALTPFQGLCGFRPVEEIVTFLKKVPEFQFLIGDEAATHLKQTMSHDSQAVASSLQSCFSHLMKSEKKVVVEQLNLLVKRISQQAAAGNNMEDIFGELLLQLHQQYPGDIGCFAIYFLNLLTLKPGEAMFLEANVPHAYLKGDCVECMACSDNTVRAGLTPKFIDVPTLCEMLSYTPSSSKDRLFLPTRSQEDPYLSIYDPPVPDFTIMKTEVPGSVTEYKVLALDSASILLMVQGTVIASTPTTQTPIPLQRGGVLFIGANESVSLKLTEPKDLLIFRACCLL

[18] = NIH-3T3 fibroblast cytotoxicity, dose response, cytotoxicity control, cell-based, fluorescence, Alamar Blue, secondary assay (AID 2327); assay type: functional;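 further: NIH-3T3 mouse fibroblasts cultured with fluconazole at 8 µg/mL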
[19] = fluconazole-exposed Candida albicans growth modulators – fluorescence, retest, confirmation (AID 2467); assay type: functional, cell-based

EC50 [8]: > 91.8 µM (not active)
IC50 [5]: > 100 µM (inactive)
IC50 [6]: 6.38 µM (not active)
IC50 [7]: > 100 µM (inactive)
SMILES: COc1cccc2c(=O)c3cccc(N)c3[nH]c12

IC50 [9]: 63.7 µM (active)
SMILES: Cc1ccc(O)c(NC(=O)c2cc3nc4c(c(C(F)(F)F)n3n2)CCc2ccccc2-4)c1

IC50 [10]: > 50 µM (inactive)
SMILES: CCc1cc2cc(C(=O)Nc3ccccc3F)sc2s1

EC50 [16]: > 100 µM (inactive)
SMILES: Cc1ccc(S(=O)(=O)Nc2nc(-c3ccccc3)cs2)cc1

Further lines, the compound ahead of its results:

SMILES: Oc1c(N=NC(S)=Nc2ccccc2F)c2ccccc2n1Cc1ccccc1Cl
AC50 [1]: 210 µM (active)
EC50 [2]: 1.28 µM (active)
AC50 [3]: 18.7 µM (active)
EC50 [4]: 17.5 µM (active)

SMILES: CC(C)CNC(=O)c1c(N)n(Cc2ccco2)c2nc3ccccc3nc12
IC50 [5]: 11.7 µM (active)
IC50 [6]: 4.4 µM (not active)
IC50 [7]: 1.86 µM (active)

SMILES: O=C(CC1Sc2ccccc2NC1=O)OCc1cc(=O)oc2cc(O)ccc12 (centres undefined)
IC50 [5]: 19.6 µM (active)
IC50 [7]: 2.71 µM (active)

SMILES: CN(C(=O)c1ccc2c(c1)SC1=NS(=O)(=O)CCN12)C(c1ccccc1)c1ccccc1
EC50 [11]: > 195 µM (not active)
AC50 [1]: 138 µM (active)
AC50 [12]: 2.1 µM (active)

SMILES: CCCCC1=CC2=CC(=O)C(C)(OC(=O)C3CCCC3)C(=O)C2=CO1 (centres undefined)
IC50 [13]: 7.84 µM (active)
IC50 [14]: > 100 µM (inactive)
IC50 [15]: 7.64 µM (active)
EC50 [16]: > 100 µM (inactive)

SMILES: Cc1cccc(N2CCc3c2nc2ccc(Br)cc2c3N)c1
AC50 [1]: 94.9 µM (active)
IC50 [17]: > 50 µM (not active)
EC50 [18]: 21.4 µM (inconclusive)
AC50 [12]: 8.82 µM (active)
EC50 [19]: 1.67 µM (active)

SMILES: O=C(Nc1nccs1)c1cccc(S(=O)(=O)N2CCCCC2)c1
IC50 [10]: > 50 µM (inactive)
